Measured values taken from BindingDB's records for doi:10.1021/acsmedchemlett.5b00177 (Dart Neuroscience, 2015).

Biological target: Methionine aminopeptidase 2 (Homo sapiens) (UniProt P50579)
Assay: Inhibition of human METAP2 using Met-Pro-Arg-pNa substrate by para-nitroanilide chromophore release detection assay

Sequence of Methionine aminopeptidase 2 (Homo sapiens) (P50579 whole entry, looked up): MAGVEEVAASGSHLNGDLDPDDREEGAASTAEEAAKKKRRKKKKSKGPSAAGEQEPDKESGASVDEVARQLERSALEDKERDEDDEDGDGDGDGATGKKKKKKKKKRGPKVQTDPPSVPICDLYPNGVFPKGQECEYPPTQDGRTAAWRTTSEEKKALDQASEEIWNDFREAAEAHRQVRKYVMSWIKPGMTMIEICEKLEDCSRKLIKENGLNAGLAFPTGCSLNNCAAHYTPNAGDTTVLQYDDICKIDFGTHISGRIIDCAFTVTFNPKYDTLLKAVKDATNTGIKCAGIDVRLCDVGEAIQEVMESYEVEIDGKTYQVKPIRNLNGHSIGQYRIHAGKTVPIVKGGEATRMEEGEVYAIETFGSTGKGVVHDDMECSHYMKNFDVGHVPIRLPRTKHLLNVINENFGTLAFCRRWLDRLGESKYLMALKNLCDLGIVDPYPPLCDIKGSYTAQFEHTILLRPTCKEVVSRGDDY

Row | IC50 [µM] | Compound
1 | 24 | CN1CCN(c2cncc(-c3cnc4c5[nH]ncc5c(=O)n(CC(F)(F)F)c4c3)c2)CC1
2 | 5 | CN1CCN(c2ccc(-c3cnc4c5[nH]ncc5c(=O)n(CC(F)(F)F)c4c3)cn2)CC1
3 | 20 | O=c1c2cn[nH]c2c2ncc(-c3ccccc3C(F)(F)F)cc2n1CC(F)(F)F
4 | 13 | O=c1c2cn[nH]c2c2cnc(-c3ncccc3Cl)cc2n1CC(F)(F)F
